These results are taken from patent US20210255193A1, “LYSINE REACTIVE PROBES AND USES THEREOF” (The Scripps Research Institute, priority 2017, published 2021).

Holding throughout (assay): competitive isoTOP-ABPP
What all share (assay type): binding

Test [1] addresses T1, UCHL5 Ubiquitin carboxyl-terminal hydrolase isozyme L5 (Homo sapiens, UniProt Q9Y5K5).
T1 construct: endogenous in cells; host or cells: MDA-MB-231 (soluble fraction of lysate)
T1 sequence (Q9Y5K5 1-329): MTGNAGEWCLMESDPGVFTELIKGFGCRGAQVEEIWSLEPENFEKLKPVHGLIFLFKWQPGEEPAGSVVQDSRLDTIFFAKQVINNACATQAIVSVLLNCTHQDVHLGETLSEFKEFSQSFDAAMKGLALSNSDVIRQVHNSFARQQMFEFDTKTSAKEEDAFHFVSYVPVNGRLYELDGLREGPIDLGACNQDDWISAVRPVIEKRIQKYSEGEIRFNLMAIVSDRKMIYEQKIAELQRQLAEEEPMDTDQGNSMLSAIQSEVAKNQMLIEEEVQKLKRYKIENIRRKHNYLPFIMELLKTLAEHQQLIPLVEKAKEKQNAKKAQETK
Particulars: for isoTOP-ABPP reactivity ratio at lysine Q9Y5K5_K323 / isoTOP-ABPP ratio (R) at liganded lysine Q9Y5K5_K323: 50 uM, in vitro; for isoTOP-ABPP reactivity ratio at lysine Q9Y5K5_K323: 231 sol; for isoTOP-ABPP ratio (R) at liganded lysine Q9Y5K5_K323: sol, 231. The procedure, abridged: (§1)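 Here, isoTOP-ABPP measures loss of STP-alkyne labeling at individual lysines after fragment exposure in lysate. Activated esters are dosed at 50 μM, guanidinylating agents at 100 μM; the probe follows at 0.1 mM for 1 h. R ≥4 marks a liganded lysine.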

Test [2] concerns the target T2, ERAP1 Endoplasmic reticulum aminopeptidase 1 (Homo sapiens, UniProt Q9NZ08).
T2 construct: endogenous in cells; host or cells: MDA-MB-231 lysate
Particulars: for isoTOP-ABPP reactivity ratio at lysine Q9NZ08_K685 / isoTOP-ABPP ratio (R) at liganded lysine Q9NZ08_K685: 50 uM, in vitro; for isoTOP-ABPP reactivity ratio at lysine Q9NZ08_K685: 231 sol; for isoTOP-ABPP ratio (R) at liganded lysine Q9NZ08_K685: sol, 231. The method in brief: as §1

Test [3] has as its target T3, CNOT4 CCR4-NOT transcription complex subunit 4 (Homo sapiens, UniProt O95628).
T3 construct: isoTOP-ABPP experiments performed in cell lysates (in vitro); endogenous in cells; host or cells: MDA-MB-231 soluble lysate
T3 sequence (O95628 1-575): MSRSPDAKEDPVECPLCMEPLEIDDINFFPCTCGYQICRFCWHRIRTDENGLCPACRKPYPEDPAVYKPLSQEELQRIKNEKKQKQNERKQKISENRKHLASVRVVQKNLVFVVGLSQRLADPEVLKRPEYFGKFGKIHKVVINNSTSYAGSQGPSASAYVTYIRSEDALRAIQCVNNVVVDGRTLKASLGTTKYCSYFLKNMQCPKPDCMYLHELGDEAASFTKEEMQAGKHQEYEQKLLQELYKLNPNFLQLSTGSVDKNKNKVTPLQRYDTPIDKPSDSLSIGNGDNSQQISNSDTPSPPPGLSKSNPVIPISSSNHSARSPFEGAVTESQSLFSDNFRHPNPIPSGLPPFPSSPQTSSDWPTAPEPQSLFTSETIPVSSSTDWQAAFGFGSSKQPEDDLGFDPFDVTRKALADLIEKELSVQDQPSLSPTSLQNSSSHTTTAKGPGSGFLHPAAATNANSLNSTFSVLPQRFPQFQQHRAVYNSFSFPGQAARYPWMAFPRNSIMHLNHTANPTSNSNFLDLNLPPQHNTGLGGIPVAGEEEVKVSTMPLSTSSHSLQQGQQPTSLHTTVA
Particulars: for isoTOP-ABPP reactivity ratio at lysine O95628_K134 / isoTOP-ABPP ratio (R) at liganded lysine O95628_K134: 50 uM, in vitro; for isoTOP-ABPP reactivity ratio at lysine O95628_K134: 231 sol; for isoTOP-ABPP ratio (R) at liganded lysine O95628_K134: sol, 231. The procedure, abridged: as §1

Test [4] has as its target T4, XRCC6 X-ray repair cross-complementing protein 6 (Homo sapiens, UniProt P12956).
T4 construct: isoTOP-ABPP experiments performed in cell lysates (in vitro); endogenous in cells; host or cells: soluble proteome of human cancer cell lines (MDA-MB-231; Ramos and Jurkat also prepared)
Particulars: for isoTOP-ABPP reactivity ratio at lysine P12956_K351 / isoTOP-ABPP ratio (R) at liganded lysine P12956_K351: 50 uM, in vitro; for isoTOP-ABPP reactivity ratio at lysine P12956_K351: 231 sol; for isoTOP-ABPP ratio (R) at liganded lysine P12956_K351: sol, 231. The procedure, abridged:
as §1

T2 sequence (Q9NZ08 whole entry): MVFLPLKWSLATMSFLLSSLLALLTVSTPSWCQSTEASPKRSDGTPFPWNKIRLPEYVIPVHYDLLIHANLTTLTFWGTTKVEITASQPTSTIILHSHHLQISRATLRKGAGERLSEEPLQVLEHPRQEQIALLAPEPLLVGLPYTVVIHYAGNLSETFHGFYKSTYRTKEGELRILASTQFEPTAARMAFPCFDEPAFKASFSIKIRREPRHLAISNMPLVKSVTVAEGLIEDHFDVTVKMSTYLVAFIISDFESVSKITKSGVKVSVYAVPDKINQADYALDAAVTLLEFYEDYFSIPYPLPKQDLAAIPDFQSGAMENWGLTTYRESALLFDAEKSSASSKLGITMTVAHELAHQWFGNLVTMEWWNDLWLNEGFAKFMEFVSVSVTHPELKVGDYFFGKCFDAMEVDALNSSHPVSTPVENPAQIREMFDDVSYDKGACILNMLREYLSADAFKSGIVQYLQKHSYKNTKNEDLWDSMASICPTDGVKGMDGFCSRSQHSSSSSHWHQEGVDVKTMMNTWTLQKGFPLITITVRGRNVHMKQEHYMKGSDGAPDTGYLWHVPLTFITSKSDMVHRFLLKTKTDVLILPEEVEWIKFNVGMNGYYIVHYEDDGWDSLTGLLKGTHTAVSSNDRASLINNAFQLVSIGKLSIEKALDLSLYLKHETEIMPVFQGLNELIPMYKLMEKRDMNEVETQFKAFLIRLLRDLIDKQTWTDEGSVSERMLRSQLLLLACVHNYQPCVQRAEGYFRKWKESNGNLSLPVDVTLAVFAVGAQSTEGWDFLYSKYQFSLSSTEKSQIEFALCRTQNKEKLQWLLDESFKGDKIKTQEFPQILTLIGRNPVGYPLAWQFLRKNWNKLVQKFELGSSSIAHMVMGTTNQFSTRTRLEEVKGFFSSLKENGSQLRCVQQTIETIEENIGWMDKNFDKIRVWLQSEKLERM
T4 sequence (P12956 2-609 limits assumed): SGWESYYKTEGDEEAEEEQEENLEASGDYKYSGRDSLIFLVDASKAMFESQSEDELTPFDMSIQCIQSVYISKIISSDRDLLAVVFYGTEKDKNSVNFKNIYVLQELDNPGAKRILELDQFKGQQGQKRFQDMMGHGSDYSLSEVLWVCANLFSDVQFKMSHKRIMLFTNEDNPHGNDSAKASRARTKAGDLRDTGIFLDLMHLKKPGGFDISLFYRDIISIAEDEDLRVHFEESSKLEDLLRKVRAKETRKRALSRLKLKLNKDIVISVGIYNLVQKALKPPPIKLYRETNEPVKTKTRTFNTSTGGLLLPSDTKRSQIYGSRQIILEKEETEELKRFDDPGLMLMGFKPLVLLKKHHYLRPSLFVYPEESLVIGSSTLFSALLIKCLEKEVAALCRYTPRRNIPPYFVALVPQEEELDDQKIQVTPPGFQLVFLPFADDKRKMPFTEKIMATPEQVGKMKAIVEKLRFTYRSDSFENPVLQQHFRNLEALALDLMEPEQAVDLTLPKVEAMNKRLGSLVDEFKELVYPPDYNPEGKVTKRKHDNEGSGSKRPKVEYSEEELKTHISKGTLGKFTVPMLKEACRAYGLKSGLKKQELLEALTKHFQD
T4 sequence (P13010 2-732 partner limits assumed): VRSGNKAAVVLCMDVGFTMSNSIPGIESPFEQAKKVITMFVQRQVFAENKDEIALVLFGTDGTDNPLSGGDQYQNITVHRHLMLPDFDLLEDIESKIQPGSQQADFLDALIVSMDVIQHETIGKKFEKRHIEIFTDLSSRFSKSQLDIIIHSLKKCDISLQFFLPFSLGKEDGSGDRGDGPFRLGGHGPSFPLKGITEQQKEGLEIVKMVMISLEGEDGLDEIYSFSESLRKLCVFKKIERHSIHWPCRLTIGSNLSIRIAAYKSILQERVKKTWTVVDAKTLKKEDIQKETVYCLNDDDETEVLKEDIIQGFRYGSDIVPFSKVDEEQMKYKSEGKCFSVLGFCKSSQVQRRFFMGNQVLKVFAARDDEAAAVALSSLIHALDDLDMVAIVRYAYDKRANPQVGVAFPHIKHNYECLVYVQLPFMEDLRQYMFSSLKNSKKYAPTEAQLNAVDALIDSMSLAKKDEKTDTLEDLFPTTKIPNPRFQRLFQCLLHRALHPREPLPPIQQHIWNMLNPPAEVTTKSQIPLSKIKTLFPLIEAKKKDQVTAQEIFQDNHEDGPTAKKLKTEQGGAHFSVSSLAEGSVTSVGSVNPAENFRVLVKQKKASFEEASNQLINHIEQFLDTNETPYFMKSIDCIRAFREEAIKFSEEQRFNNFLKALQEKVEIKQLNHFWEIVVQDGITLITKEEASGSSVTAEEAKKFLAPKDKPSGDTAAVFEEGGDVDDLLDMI

Regarding `O=C(CCc1coc2cc(F)ccc2c1=O)Oc1c(F)c(F)c(F)c(F)c1F` [fragment 26, Pentafluorophenyl 3-(7-fluoro-4-oxo-4H-chromen-3-yl)propanoate], in test [1], the “isoTOP-ABPP reactivity ratio at lysine Q9Y5K5_K323” value stood at 1.1. Further, in test [2], the “isoTOP-ABPP reactivity ratio at lysine Q9NZ08_K685” value is 1.2. Moreover, the “isoTOP-ABPP reactivity ratio at lysine O95628_K134” value in test [3] is 1.1. Also, in test [4], the “isoTOP-ABPP reactivity ratio at lysine P12956_K351” value was determined as 2.1.
For `O=C(CN1C(=O)c2ccccc2C1=O)Oc1c(F)c(F)c(F)c(F)c1F` [fragment 27, Pentafluorophenyl 2-(1,3-dioxoisoindolin-2-yl)acetate], the “isoTOP-ABPP reactivity ratio at lysine Q9Y5K5_K323” value in test [1] came out at 1.1. Moreover, the “isoTOP-ABPP reactivity ratio at lysine Q9NZ08_K685” value in test [2] is recorded as 5.7. The “isoTOP-ABPP reactivity ratio at lysine O95628_K134” value in test [3] stood at 1.2. Besides, the “isoTOP-ABPP reactivity ratio at lysine P12956_K351” value in test [4] came out at 3.1.
`CCn1cc(C(=O)Oc2c(F)c(F)c(F)c(F)c2F)c(=O)c2ccc(C)nc21` [fragment 28, Pentafluorophenyl 1-ethyl-7-methyl-4-oxo-1,4-dihydro-1,8-naphthyridine-3-carboxylate]: in test [1], the “isoTOP-ABPP reactivity ratio at lysine Q9Y5K5_K323” value was 1.2. Besides, the “isoTOP-ABPP reactivity ratio at lysine Q9NZ08_K685” value in test [2] came to 1.4. Further, the “isoTOP-ABPP reactivity ratio at lysine O95628_K134” value in test [3] was 1.0. Besides, the “isoTOP-ABPP reactivity ratio at lysine P12956_K351” value in test [4] was 1.9.
Taken in the same sequence, the figures for `O=C(CCc1cn(-c2ccccc2)nc1-c1ccccc1)Oc1ccc([N+](=O)[O-])cc1[N+](=O)[O-]` [fragment 29, 2,4-Dinitrophenyl 3-(1,3-diphenyl-1H-pyrazol-4-yl)propanoate] were 1.1, 1.0, 1.1 and 3.2.
As for `O=C(Oc1ccc([N+](=O)[O-])cc1[N+](=O)[O-])C(c1ccccc1)c1ccccc1` [fragment 30, 2,4-Dinitrophenyl 2,2-diphenylacetate], in test [1], the “isoTOP-ABPP reactivity ratio at lysine Q9Y5K5_K323” value was found to be 1.1. In addition, the “isoTOP-ABPP reactivity ratio at lysine Q9NZ08_K685” value in test [2] is on record as 1.2. Moreover, in test [3], the “isoTOP-ABPP reactivity ratio at lysine O95628_K134” value worked out at 1.2. For the same molecule, in test [4], the “isoTOP-ABPP reactivity ratio at lysine P12956_K351” value is listed as 20.0.
As for `O=C(Oc1ccc([N+](=O)[O-])cc1[N+](=O)[O-])c1cc(C(F)(F)F)cc(C(F)(F)F)c1` [fragment 31, 2,4-Dinitrophenyl 3,5-bis(trifluoromethyl)benzoate], in test [1], the “isoTOP-ABPP reactivity ratio at lysine Q9Y5K5_K323” value turned out to be 1.0. In addition, the “isoTOP-ABPP reactivity ratio at lysine Q9NZ08_K685” value in test [2] was 1.6. For the same molecule, the “isoTOP-ABPP reactivity ratio at lysine O95628_K134” value in test [3] was determined as 4.3. Also, in test [4], the “isoTOP-ABPP reactivity ratio at lysine P12956_K351” value is reported as 2.6.
Taken in the same sequence, the figures for `Cn1cc(CC(=O)Oc2ccc([N+](=O)[O-])cc2[N+](=O)[O-])c2ccccc21` [fragment 32, 2,4-Dinitrophenyl 2-(1-methyl-1H-indol-3-yl)acetate] were 1.0, 2.8, 2.1 and 13.4.
For `COc1cc(CCC(=O)Oc2ccc([N+](=O)[O-])cc2[N+](=O)[O-])cc(OC)c1OC` [fragment 33, 2,4-Dinitrophenyl 3-(3,4,5-trimethoxyphenyl)propanoate], in that order: 0.8, 1.0, 1.4 and 2.5.
Turning to `O=C(Oc1ccc([N+](=O)[O-])cc1[N+](=O)[O-])C1CCN(C(=O)OCc2ccccc2)CC1` [fragment 34, 1-Benzyl 4-(2,4-dinitrophenyl) piperidine-1,4-dicarboxylate], the “isoTOP-ABPP ratio (R) at liganded lysine Q9Y5K5_K323” value in test [1] is 0.9. The “isoTOP-ABPP ratio (R) at liganded lysine Q9NZ08_K685” value in test [2] is recorded as 1.7. The “isoTOP-ABPP ratio (R) at liganded lysine O95628_K134” value in test [3] was 1.1. In addition, in test [4], the “isoTOP-ABPP ratio (R) at liganded lysine P12956_K351” value is 1.6.
For `O=C(Oc1ccc([N+](=O)[O-])cc1[N+](=O)[O-])c1ccc(-c2ccccc2)cc1` [fragment 37, 2,4-Dinitrophenyl [1,1′-biphenyl]-4-carboxylate], in that order: 0.9, 1.0, 1.0 and 1.3.
For `O=C(CC12CC3CC(CC(C3)C1)C2)Oc1ccc([N+](=O)[O-])cc1[N+](=O)[O-]` [fragment 38, 2,4-Dinitrophenyl 2-(adamantan-1-yl)acetate], the “isoTOP-ABPP ratio (R) at liganded lysine Q9Y5K5_K323” value in test [1] came out at 0.9. Further, the “isoTOP-ABPP ratio (R) at liganded lysine Q9NZ08_K685” value in test [2] is reported as 1.0. For the same molecule, in test [3], the “isoTOP-ABPP ratio (R) at liganded lysine O95628_K134” value is on record as 1.2. Moreover, in test [4], the “isoTOP-ABPP ratio (R) at liganded lysine P12956_K351” value worked out at 3.3.
Taken in the same sequence, the figures for `O=C(Oc1ccc([N+](=O)[O-])cc1[N+](=O)[O-])c1ccc(Oc2ccccc2)cc1` [fragment 39, 2,4-Dinitrophenyl 4-phenoxybenzoate] were 0.9, 1.0, 1.0 and 1.6.
In the case of `O=C(Oc1ccc([N+](=O)[O-])cc1[N+](=O)[O-])c1ccccc1Nc1cccc(C(F)(F)F)c1` [fragment 40, 2,4-Dinitrophenyl 2-((3-(trifluoromethyl)phenyl)amino)benzoate], the “isoTOP-ABPP ratio (R) at liganded lysine Q9Y5K5_K323” value in test [1] came out at 1.0. Moreover, the “isoTOP-ABPP ratio (R) at liganded lysine Q9NZ08_K685” value in test [2] is reported as 1.1. Moreover, the “isoTOP-ABPP ratio (R) at liganded lysine O95628_K134” value in test [3] is listed as 1.1. Also, the “isoTOP-ABPP ratio (R) at liganded lysine P12956_K351” value in test [4] was 1.0.
On to `CC(C)(C)OC(=O)NCCCC(=O)Oc1ccc([N+](=O)[O-])cc1[N+](=O)[O-]` [fragment 41, 2,4-Dinitrophenyl 4-((tert-butoxycarbonyl)amino)butanoate], for which the “isoTOP-ABPP ratio (R) at liganded lysine Q9Y5K5_K323” value in test [1] is 1.0. For the same molecule, the “isoTOP-ABPP ratio (R) at liganded lysine Q9NZ08_K685” value in test [2] turned out to be 1.3. Also, the “isoTOP-ABPP ratio (R) at liganded lysine O95628_K134” value in test [3] was found to be 1.3. Besides, the “isoTOP-ABPP ratio (R) at liganded lysine P12956_K351” value in test [4] is reported as 1.6.
With `O=C(Oc1ccc([N+](=O)[O-])cc1[N+](=O)[O-])C(c1ccccc1)(c1ccccc1)c1ccccc1` [fragment 42, 2,4-Dinitrophenyl 2,2,2-triphenylacetate], in test [1], the “isoTOP-ABPP ratio (R) at liganded lysine Q9Y5K5_K323” value is listed as 1.0. For the same molecule, the “isoTOP-ABPP ratio (R) at liganded lysine Q9NZ08_K685” value in test [2] is 1.0. Also, the “isoTOP-ABPP ratio (R) at liganded lysine O95628_K134” value in test [3] was 1.0. For the same molecule, the “isoTOP-ABPP ratio (R) at liganded lysine P12956_K351” value in test [4] was determined as 1.0.
In the case of `CC(=O)Oc1ccc([N+](=O)[O-])cc1[N+](=O)[O-]` [fragment 43, 2,4-Dinitrophenyl acetate], the “isoTOP-ABPP ratio (R) at liganded lysine Q9Y5K5_K323” value in test [1] turned out to be 1.0. Further, the “isoTOP-ABPP ratio (R) at liganded lysine Q9NZ08_K685” value in test [2] worked out at 1.1. In addition, in test [3], the “isoTOP-ABPP ratio (R) at liganded lysine O95628_K134” value was found to be 1.3. The “isoTOP-ABPP ratio (R) at liganded lysine P12956_K351” value in test [4] came out at 1.5.
For the molecule `N#Cc1ccc(C(=O)Oc2ccc([N+](=O)[O-])cc2[N+](=O)[O-])cc1` [fragment 44, 2,4-Dinitrophenyl 4-cyanobenzoate], in test [1] (50 uM_231_sol_in vitro), the “isoTOP-ABPP ratio, lysine Q9Y5K5_K323” value came to 0.9. Moreover, in test [2] (50 uM_231_sol_in vitro), the “isoTOP-ABPP ratio, lysine Q9NZ08_K685” value amounted to 1.6. Also, the “isoTOP-ABPP ratio, lysine O95628_K134” value in test [3] (50 uM_231_sol_in vitro) turned out to be 2.0. The “isoTOP-ABPP ratio, lysine P12956_K351” value in test [4] (50 uM_231_sol_in vitro) was 1.1.
